Assay results: patent US6573289B1, “Naphthalene derivatives, their production and use” (Takeda Chemical Industries, Ltd., priority 1998, dated 2003)
Structures can show the parent of a compound that is named as a salt.

What was measured:
Rat Steroid C17-20-Lyase = target: T1, Rat Steroid C17-20-Lyase (Rattus norvegicus, UniProt P11715); test: Assay of inhibitory activity on rat steroid C17-20-lyase in vitro; type: biochemical; settings: rat testicular microsomes, 10 nM [1,2-3H]-17-α-hydroxyprogesterone, NADPH, 7 min at 37° C.; products testosterone and androstenedione reduced by 50%
T1 construct: testicular microsomes were prepared by a series of centrifugation; from tissue; host or cells: testicular microsomes of 13-week old male SD rats
T1 sequence (P11715 1-507): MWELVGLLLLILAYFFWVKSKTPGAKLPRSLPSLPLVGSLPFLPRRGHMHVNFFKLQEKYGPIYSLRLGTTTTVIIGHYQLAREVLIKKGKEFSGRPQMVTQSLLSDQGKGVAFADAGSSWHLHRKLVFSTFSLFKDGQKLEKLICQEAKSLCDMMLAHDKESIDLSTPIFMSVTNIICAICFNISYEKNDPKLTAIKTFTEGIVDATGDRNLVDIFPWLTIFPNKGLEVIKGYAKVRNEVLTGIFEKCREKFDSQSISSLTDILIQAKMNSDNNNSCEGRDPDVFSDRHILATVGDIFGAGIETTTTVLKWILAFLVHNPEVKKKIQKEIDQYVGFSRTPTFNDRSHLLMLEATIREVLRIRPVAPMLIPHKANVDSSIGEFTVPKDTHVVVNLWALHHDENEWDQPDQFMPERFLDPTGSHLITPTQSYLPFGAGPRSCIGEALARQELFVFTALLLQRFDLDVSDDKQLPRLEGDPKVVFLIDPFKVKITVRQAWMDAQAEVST
Method: Assay of Inhibitory Activity on Rat Steroid C17-20-Lyase In Vitro
Inhibitory activity was determined according to the method described in The Prostate, vol.26, 140-150(1995) with some modifications.
Testes excised from 13-week old, male SD rats were homogenized, and testicular microsomes were prepared by a series of centrifugation. The microsome protein (7 μg/10 μl) was added to 10 μl of 100 mM phosphate buffer (pH 7.4) in which 10 nM (final concentration) [1,2-3H]-17-α-hydroxyprogesterone, NADPH, and test compounds were dissolved. The reaction mixture was incubated for 7 min at 37° C., terminated by addition of 40 μl of Ethyl acetate, and briefly centrifuged. The substrate and the products (testosterone and androstenedione) in the upper phase were separated by silica gel thin layer chromatography. Detection of the spots and measurement of the radioactivity were performed by a BAS 2000 Bioimage analyzer. The concentration of the test compounds necessary to reduce the concentration of the products by 50% (The concentration in the control group in which no test compound was added was taken as 100%) was calculated, and shown in Table 1.

[1] = system: testosterone biosynthesis; test: Assay of inhibitory activity on testosterone biosynthesis in rat; type: in vivo; settings: male SD rats, oral, 50 mg/kg, serum testosterone 2 h later, percentage of control group
Method: Assay of Inhibitory Activity on Testosterone Biosynthesis in Rat
Test compounds were orally administered to 9-week old, male SD (Spague-Dawley) rats at a dose of 50 mg/kg. Two-h later blood was taken and testosterone concentration in serum was measured by radioimmunoassay. The percentage of the testosterone concentration of the groups of rats, which received test compounds, to that of the control group was calculated, and regarded as the inhibitory activity.

| SMILES | IC50 (Rat Steroid C17-20-Lyase) [nM] | Inhibitory activity on testosterone biosynthesis (T/C, %) [1] [%] |
| --- | --- | --- |
| COc1ccc2cc(C(C)(OC)c3c[nH]cn3)ccc2c1 (stereo not drawn) [Example 19, 4-[1-Methoxy-1-(6-methoxynaphthalen-2-yl)ethyl]-1H-imidazole] | 35 |  |
| CCC(O)(c1ccc2cc(OC)ccc2c1)c1c[nH]cn1 (stereo not drawn) [Example 12, 1-(1H-Imidazol-4-yl)-1-(6-methoxynaphthalen-2-yl)-1-propanol] | 41 | 10 |
| COc1ccc2cc(C(O)(c3c[nH]cn3)C(C)C)ccc2c1F (stereo not drawn) [Example 11, 1-(5-Fluoro-6-methoxynaphthalen-2-yl)-1-(1H-imidazol-4-yl)-2-methyl-1-propanol] | 32 | 9.0 |

Continued, in another order:

| IC50 (Rat Steroid C17-20-Lyase) [nM] | SMILES | Inhibitory activity on testosterone biosynthesis (T/C, %) [1] [%] |
| --- | --- | --- |
| 64 | COc1ccc2cc(C(O)(c3c[nH]cn3)C3CC3)ccc2c1 (stereo not drawn) [Example 4, Cyclopropyl-(6-methoxynaphthalen-2-yl)-(1H-imidazol-4-yl)methanol Fumarate] |  |
| 33 | COc1ccc2cc(C(O)(c3c[nH]cn3)C(C)C)ccc2c1 (stereo not drawn) [Example 1, 1-(1H-Imidazol-4-yl)-1-(6-methoxynaphthalen-2-yl)-2-methyl-1-propanol] | 2.0 |
| 32 | COc1ccc2cc(C(O)(c3ccncc3)C(C)C)ccc2c1 (stereo not drawn) [Example 9, 1-(6-Methoxynaphthalen-2-yl)-2-methyl-1-(pyridin-4-yl)-1-propanol] |  |
